Assay results published in patent publication US20130345257A1, “COMPOSITION FOR LUPUS NEPHRITIS AND METHODS OF MAKING AND USING THE SAME” (The Regents of the University of California, priority 2012, published 2013).
Entries after “also recorded” stand apart in the source; their conditions may differ.

How the values were obtained:
[1] = system: lupus nephritis in BWF1 mice; test: Preventive treatment of pre-nephritic BWF1 mice (survival, proteinuria, creatinine, anti-dsDNA, renal histology, IgG/C3 deposition); type: in vivo, mouse; settings: for Survival vs. controls: BWF1 females treated orally for 24 weeks before disease, p=0.028; for Survival vs. controls / Mice with proteinuria at 32 wks. of age: LAQ 1 and 25 mg/kg; for Survival, low dose treatment: LAQ 1 mg/kg 3 days a week, MMF 30 mg/kg 5 days a week, prior to anti-dsDNA and proteinuria; for Survival, low dose treatment / Chronic scarring (GS, FSGS, IFTA) in kidney / Serum/plasma IgG anti-dsDNA antibody levels: vs water; for Chronic scarring (GS, FSGS, IFTA) in kidney: higher doses, treated before proteinuria; for Onset of proteinuria beyond 32 weeks up until about 42 weeks: low dose: LAQ 1 mg/kg 3 times a week; for Serum/plasma IgG anti-dsDNA antibody levels / Prevention of proteinuria: preventive treatment; for Serum/plasma IgG anti-dsDNA antibody levels: LAQ 1 or 25 mg/kg; for Kidney specimens (histology, glomerular IgG and C3 deposits): after more than 50% of controls developed high proteinuria; for Mice with proteinuria at 32 wks. of age / Mean total histologic score (renal histology): treated before disease; for Mice with proteinuria at 32 wks. of age: water 50%, p<0.0001; for Mean total histologic score (renal histology): water 7.8, p<0.01; for Glomerular deposition of Ig and C3: treated prior to onset of clinical nephritis, vs water group p<0.001
Experimental: Clinical and immune cell changes were compared in groups of 10-12 BWF1 female mice in the following groups: • Group 1: Water orally 3 times a week for 24 weeks. • Group 2: Laquinimod 1 mg/kg orally 3 times a week for 24 weeks. • Group 3: Laquinimod 25 mg/kg orally 3 times a week for 24 weeks. • Group 4: Mycophenolate Mofetil 30 mg/kg orally […] for 24 weeks. • Group 5: Mycophenolate Mofetil 100 mg/kg orally […] for 24 weeks (“MMF 100”).
Preventive Group: 11-week old (pre-nephritic) BWF1 female mice were treated orally 3 times a week with a) water; b) laquinimod at 1 mg/kg (LAQ1, low dose) or c) 25 mg/kg (LAQ25, high dose) (Teva Pharmaceutical); or 5 times a week with d) mycophenolate mofetil at 30 mg/kg (MMF30, low dose) or e) 100 mg/kg (MMF100, high dose).
Proteinuria was evaluated weekly using Albustix (Siemens), serum creatinine using a commercial kit (Arbor Assays) and anti-dsDNA IgG antibodies by ELISA as described previously (10). See, e.g., FIGS. 1 and 2.
Kidney specimens of BWF1 mice (37 weeks of age in the prevention group or 7 and 11 weeks after institution of early or late therapies) were embedded in OCT compound and snap frozen. 4-5 μm an sections were air-dried, fixed with cold acetone and incubated with blocking buffer (anti-CD16/CD32 (1/50), 2% normal goat or rat serum, 2% BSA).
Immunoglobulin G and C3 complement glomerular deposition were investigated by incubation of cryosections with fluoroscein isothiocyanate (FITC)-conjugated goat anti-mouse IgG (1:50) (Sigma) or rat anti-mouse C3 (1:800) (Solulink) in blocking buffer for 2 hours at room temperature. Images were acquired using Nikon Eclipse TE2000-U microscope and MetaMorph 6.3 software (Sunnyvale, Calif.). Quantification of the area immunostained in tissue sections was made using the computer image analysis software ImageJ (rsbinfonihgov</>ij</>indexhtml). For histology, kidney sections were fixed in 10% formalin and 2 μm-paraffin sections were stained with H&E, PAS and methenamine silver (Jones) for histological analysis.
Histological analysis of glomerular pathology was done by an investigator blinded to treatment group and included acute inflammatory features (endocapillary hypercellularity, mesangial hypercellularity, cellular necrosis, cellular crescents, and interstitial inflammation), and chronic features (global glomerulosclerosis (GS), focal segmental glomerulosclerosis (FSGS), and interstitial fibrosis or tubular atrophy (IF/TA)). The severity of each feature was graded as 0 (absent), 1 (lesions involving up to 25% of the component evaluated), 2 (lesions in 26-50% evaluated) or 3 (lesions in >50%) in each field of the microscope at 400× magnification. The weighted total score of the clinical features was based on this formula: [endocapillary hypercellularity+mesengial hypercellularity+(cellular necrosis*2)+(cellular crescents*2)+interstitial inflammation)/5]+(GS+FSGS+IFTA)/3, with maximum score 5.2. A minimum of 25 glomeruli, of at least 10 mice per group, were scored. Scores from each individual mouse were added and averaged to yield the glomerulonephritis score.

[2] = system: MS patients; settings: compared to placebo; cited from earlier work
[3] = system: monocyte/macrophages (CD11b^+Ly6C^−Ly6G^−); test: Expression of activation/costimulatory molecules on splenic monocyte/macrophages of treated mice; type: cell-based, mouse
Text: Spleens were removed 7 weeks after initiation of laquinimod treatment in PU^lo animals. Splenocytes were stimulated with TLR4 (LPS), 7 (imiquimod), or 9 (ODN) agonists, or PMA plus ionomycin, as described. FACS plots are representative of one experiment showing intracellular production of (A) IL-10 or (B) TNFα by monocyte/macrophages (CD11b+Ly6C−Ly6G−), and (C) IFNγ by CD4^+ T cells from laquinimod- or vehicle-treated mice. Graphs of IL-10, TNFα, and IFNγ production represent mean±SEM of cytokine production (n=6/gp, *p<0.05, **p<0.01, ***p<0.001 using two way ANOVA). […] Graphs depict mean±SD of mean fluorescence intensity (MFI) and are from three independent experiments with similar results. (n=4/gp, *p<0.05, **p<0.01, ***p<0.001 using t test).
Single-cell suspensions from spleen or kidneys were stained for extracellular markers for 20 min at 4° C. in PBS/1% FBS. Intracellular staining for Foxp3 and cytokines was performed using the Foxp3 Fixation/Permeabilization kit according to the manufacturer's protocol (eBioscience). Cells were acquired on a FACS LSR II (BD) and data was analyzed using Flowjo (Tree Star).

[4] = system: CD3/28-stimulated CD4^+CD25^− T cell proliferation; test: T cell suppression assay and function of MDSC sorted from spleens of treated mice; type: cell-based, mouse; settings: data not shown
Experimental: Single cell suspensions of splenocytes or kidney cells were prepared using cell strainers (Fisher), followed by red blood cell lysis. Kidney lymphocytes were separated from connective tissue by centrifugation (15 minutes at 400g) in 30% Percoll (GE Healthcare). CD4^+CD25^− cells from spleen and kidney were isolated using the CD4^+CD25^+ regulatory T cell isolation kit according to manufacturer's protocol (Miltenyi). CD11b+ cells were isolated using EasySep mouse CD11b positive selection kit (StemCell Technologies), surface stained for Ly6C and Ly6G prior to sorting myeloid-derived suppressor cells (MDSC) using FACSAria II. Populations were >95% pure by FACS analysis. CD4^+CD25^− cells were labelled with 5 µM CFSE and stimulated with Dynabeads mouse T-cell activator CD3/CD28 (Invitrogen). Stimulated CD4^+CD25^− cells (4×10^4) were co-cultured with monocytic-MDSC(CD11b^+Ly6C^+Ly6G^−) or granulocytic-MDSC(CD11b^+Ly6C^+Ly6G^+) at a 1:1 ratio. Proliferation of CD4^+ cells was assayed after 4 days of incubation at 37° C., 5% CO2 by flow cytometry.

[5] = MMF 100 mg/kg, listed as Laquinimod
[6] = both LAQ doses (1, 25 mg/kg), MMF 100 mg/kg
[7] = preventive, LAQ 25 mg/kg, MMF 100 mg/kg

Row | Structure (SMILES) | Survival vs. controls ([1]; MMF 100 mg/kg) | Survival, low dose treatment [1] | Chronic scarring (GS, FSGS, IFTA) in kidney [1] | Onset of proteinuria beyond 32 weeks up until about 42 weeks ([1]; MMF 30 mg/kg) | Serum/plasma IgG anti-dsDNA antibody levels ([1]; MMF 100 mg/kg) | Prevention of proteinuria [1, 6] | Kidney specimens (histology, glomerular IgG and C3 deposits) [1, 7] | Mice with proteinuria at 32 wks. of age ([1]; MMF 100 mg/kg) | Mean total histologic score (renal histology) ([1]; MMF 100 mg/kg) | Glomerular deposition of Ig and C3 [1] | further results
1 | CCN(C(=O)c1c(O)c2c(Cl)cccc2n(C)c1=O)c1ccccc1 [LAQ, 5-chloro-N-ethyl-4-hydroxy-1-methyl-2-oxo-N-phenyl-1,2-dihydroquinoline-3-carboxamide] | better | significantly better; also recorded: still alive at 45 weeks | less | completely prevented onset of proteinuria | suppressed; also recorded: significantly lower; also recorded: lower anti-DNA levels | equivalent to MMF100 and completely prevented proteinuria and prevented the appearance of proteinuria and none | largely unremarkable | zero | 1.0 | in the normal range; also recorded: significantly decreased | Development of proteinuria six weeks after the treatment ([1]; FIG. 5, treated three days of each week prior to proteinuria): did not develop proteinuria; Serum/plasma IgG anti-dsDNA antibody levels [1, 5]: suppressed; Prevention of proteinuria ([1]; both LAQ doses (1, 25 mg/kg), MMF 100 mg/kg, listed as Laquinimod): equivalent to MMF 100; Rise in serum creatinine levels ([1]; preventive, LAQ 25 mg/kg, after 18 weeks of treatment): significantly delayed; also recorded: prevented a rise in serum creatinine; Mice with proteinuria at 32 wks. of age [1, 5]: none; Glomerular deposition of Ig and C3 ([1]; listed as laquinimod): in the normal range; New MRI lesions in the brains of patients with RRMS [2]: significant reduction; Expression of MHC 11, CD86 and CD80 on M/M after in vitro stimulation with LPS ([3]; LPS 1 μg/mL): significantly lower; Ex vivo expression of MHC 11, CD86 and CD40 on M/M ([3]; vs vehicle-treated animals, listed as laquinimod): decreased expression; also recorded: down-regulated; Production of arginase and reactive oxygen species (MDSC) [4]: not affected
2 | COc1c(C)c2c(c(O)c1C/C=C(\C)CCC(=O)OCCN1CCOCC1)C(=O)OC2 [MMF, mycophenolate mofetil, reference compound] | better | significantly better; also recorded: still alive at 45 weeks | less | effective in delaying onset of proteinuria | suppressed; also recorded: lower anti-DNA levels | prevented proteinuria and prevented the appearance of proteinuria and none | largely unremarkable | zero and none | 0.9 | in the normal range; also recorded: significantly decreased | Prevention of proteinuria ([1]; MMF 30 mg/kg, 18-week study period): did not
